Laboratory results reported in patent US11331314B2, “Amine substituted triazole derivatives and uses thereof” (Bayer Pharma Aktiengesellschaft, priority 2017, dated 2022).

How the values were obtained:
human V1a receptor = human V1a receptor (Homo sapiens, UniProt P37288); experiment: Cellular in vitro assay for determining vasopressin receptor activity, V1a receptor cell line (photoprotein luminescence); type: cell-based; details: for IC50: CHO cell line transfected with the human V1a receptor, agonist [Arg8]-vasopressin at EC50 concentration, read-out: IC50 hV1a; for ratio IC50 hV2/hV1a: selectivity ratio of the cellular IC50 values
Method: (§1) B-1. Cellular In Vitro Assay for Determining Vasopressin Receptor Activity
(§2) The identification of agonists and antagonists of the V1a and V2 vasopressin receptors from humans, rats and dogs as well as the quantification of the activity of the compounds of the invention is carried out using recombinant cell lines. These cell lines originally derive from a hamster's ovary epithelial cell (Chinese Hamster Ovary, CHO K1, ATCC: American Type Culture Collection, Manassas, Va. 20108, USA). The test cell lines constitutively express the human, rat or dog V1a or V2 receptors. In case of the Gαq-coupled V1a receptors, cells are also stably transfected with a modified form of the calcium-sensitive photoproteins aequorin (human and rat V1a) or obelin (dog V1a), which, after reconstitution with the cofactor coelenterazine, emit light when there are increases in free calcium concentrations [Rizzuto R, Simpson A W, Brini M, Pozzan T, Nature 358, 325-327 (1992); Illarionov B A, Bondar V S, Illarionova V A, Vysotski E S, Gene 153 (2), 273-274 (1995)]. The resulting vasopressin receptor cells react to stimulation of the recombinantly expressed V1a receptors by intracellular release of calcium ions, which can be quantified by the resulting photoprotein luminescence. The Gs-coupled V2 receptors are stably transfected into cell lines expressing the gene for firefly luciferase under control of a CRE-responsible promoter. Activation of V2 receptors induces the activation of the CRE-responsive promoter via cAMP increase, thereby inducing the expression of firefly luciferase. The light emitted by photoproteins of V1a cell lines as well as the light emitted by firefly luciferase of V2 cell lines corresponds to the activation or inhibition of the respective vasopressin receptor. The bioluminescence of the cell lines is detected using a suitable luminometer [Milligan G, Marshall F, Rees S, Trends in Pharmacological Sciences 17, 235-237 (1996)].
Vasopressin V1a Receptor Cell Lines:
On the day before the assay, the cells are plated out in culture medium (DMEM/F12, 2% FCS, 2 mM glutamine, 10 mM HEPES, 5 μg/ml coelenterazine) in 384-well microtiter plates and kept in a cell incubator (96% humidity, 5% v/v CO2, 37° C.). On the day of the assay, test compounds in various concentrations are placed for 10 minutes in the wells of the microtiter plate before the agonist [Arg^8]-vasopressin at EC50 concentration is added. The resulting light signal is measured immediately in a luminometer.
(§3) Table 1A below lists individual IC50 values for the compounds of the invention (including racemic mixtures as well as separated enantiomers) that were obtained from cell lines transfected with the human V1a or V2 receptor: […]

human V2 receptor = molecular target: T1, human V2 receptor (Homo sapiens, UniProt P30518); experiment: Cellular in vitro assay for determining vasopressin receptor activity, V2 receptor cell line (CRE-luciferase); type: cell-based; details: CHO cell line transfected with the human V2 receptor; agonist [Arg8]-vasopressin at EC50 concentration; read-out: IC50 hV2
T1 construct: expressed in transfected cells; host or cells: CHO K1 (ATCC) expressing firefly luciferase under a CRE-responsive promoter
Method: as §1, §2
Vasopressin V2 Receptor Cell Lines:
On the day before the assay, the cells are plated out in culture medium (DMEM/F12, 2% FCS, 2 mM glutamine, 10 mM HEPES) in 384-well microtiter plates and kept in a cell incubator (96% humidity, 5% v/v CO2, 37° C.). On the day of the assay, test compounds in various concentrations and the agonist [Arg^8]-vasopressin at EC50 concentration are added together to the wells, and plates are incubated for 3 hours in a cell incubator. Upon addition of the cell lysis reagent Triton™ and the substrate luciferin, luminescence of firefly luciferase is measured in a luminometer.
as §3

human V1a receptor, sequence (P37288 whole entry): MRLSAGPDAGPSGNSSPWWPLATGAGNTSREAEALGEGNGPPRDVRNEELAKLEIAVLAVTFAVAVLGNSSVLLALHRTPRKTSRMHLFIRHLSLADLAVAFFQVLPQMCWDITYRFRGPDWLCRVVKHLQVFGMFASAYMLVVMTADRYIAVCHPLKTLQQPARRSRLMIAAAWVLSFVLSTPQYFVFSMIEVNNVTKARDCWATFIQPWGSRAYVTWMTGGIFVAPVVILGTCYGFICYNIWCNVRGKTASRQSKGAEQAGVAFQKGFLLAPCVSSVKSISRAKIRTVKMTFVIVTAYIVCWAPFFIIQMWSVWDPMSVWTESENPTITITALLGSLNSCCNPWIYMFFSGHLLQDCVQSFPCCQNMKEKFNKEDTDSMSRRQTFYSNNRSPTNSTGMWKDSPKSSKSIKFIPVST
T1 sequence (P30518 whole entry): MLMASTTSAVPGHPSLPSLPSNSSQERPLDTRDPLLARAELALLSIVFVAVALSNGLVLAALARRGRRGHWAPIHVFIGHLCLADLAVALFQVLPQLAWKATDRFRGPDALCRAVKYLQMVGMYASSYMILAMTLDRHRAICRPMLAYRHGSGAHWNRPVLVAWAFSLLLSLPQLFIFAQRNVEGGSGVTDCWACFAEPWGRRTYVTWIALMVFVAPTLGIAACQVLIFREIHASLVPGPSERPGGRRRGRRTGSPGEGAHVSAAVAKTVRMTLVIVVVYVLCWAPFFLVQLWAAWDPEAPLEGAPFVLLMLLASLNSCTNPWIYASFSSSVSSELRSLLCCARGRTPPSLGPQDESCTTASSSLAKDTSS

| SMILES | IC50 (human V1a receptor) | ratio IC50 hV2/hV1a (human V1a receptor) | IC50 (human V2 receptor) |
| --- | --- | --- | --- |
| O=c1n(Cc2nc(N3CC(O)(C(F)(F)F)C3)n(-c3ccccc3Cl)n2)nc(-c2ccc(Cl)cc2)n1C[C@H](O)C(F)(F)F [Example 36, 5-(4-Chlorophenyl)-2-({1-(2-chlorophenyl)-5-[3-hydroxy-3-(trifluoromethyl)azetidin-1-yl]-1H-1,2,4-triazol-3-yl}methyl)-4-[(2S)-3,3,3-trifluoro-2-hydroxypropyl]-2,4-dihydro-3H-1,2,4-triazol-3-one] | 0.82 nM | 2.1 | 1.75 nM |
| NC(=O)C1CN(c2nc(Cn3nc(-c4ccc(Cl)cc4)n(C[C@H](O)C(F)(F)F)c3=O)nn2-c2ccccc2Cl)C1 [Example 74, 1-[1-(2-Chlorophenyl)-3-({3-(4-chlorophenyl)-5-oxo-4-[(2S)-3,3,3-trifluoro-2-hydroxypropyl]-4,5-dihydro-1H-1,2,4-triazol-1-yl}methyl)-1H-1,2,4-triazol-5-yl]azetidine-3-carboxamide] | 0.48 nM | 7.5 | 3.6 nM |
| NC(=O)[C@H]1CCCN1c1nc(Cn2nc(-c3ccc(Cl)cc3)n(C[C@H](O)C(F)(F)F)c2=O)nn1-c1ccccc1Cl [Example 59, 1-[1-(2-Chlorophenyl)-3-({3-(4-chlorophenyl)-5-oxo-4-[(2S)-3,3,3-trifluoro-2-hydroxypropyl]-4,5-dihydro-1H-1,2,4-triazol-1-yl}methyl)-1H-1,2,4-triazol-5-yl]-D-prolinamide] | 2.3 nM | 17.2 | 39.5 nM |
| O=c1n(Cc2nc(N3CCC(F)(F)CC3)n(-c3ccccc3Cl)n2)nc(-c2ccc(Cl)cc2)n1C[C@H](O)C(F)(F)F [Example 34, 5-(4-Chlorophenyl)-2-{[1-(2-chlorophenyl)-5-(4,4-difluoropiperidin-1-yl)-1H-1,2,4-triazol-3-yl]methyl}-4-[(2S)-3,3,3-trifluoro-2-hydroxypropyl]-2,4-dihydro-3H-1,2,4-triazol-3-one] | 0.46 nM | 19.0 | 8.75 nM |
| O=C1CCC(CNc2nc(Cn3nc(-c4ccc(Cl)cc4)n(C[C@H](O)C(F)(F)F)c3=O)nn2-c2ccccc2Cl)N1 (mixture of isomers) [Example 63, 5-(4-Chlorophenyl)-2-{[1-(2-chlorophenyl)-5-({[5-oxopyrrolidin-2-yl]methyl}amino)-1H-1,2,4-triazol-3-yl]methyl}-4-[(2S)-3,3,3-trifluoro-2-hydroxypropyl]-2,4-dihydro-3H-1,2,4-triazol-3-one] | 0.42 nM | 14.0 | 5.8 nM |
| O=c1n(Cc2nc(N3CCNC(C(F)(F)F)C3)n(CCC(F)(F)F)n2)nc(-c2ccc(Cl)cc2)n1C[C@H](O)C(F)(F)F (single isomer, unassigned) [Example 107] | 43.5 nM | 18.1 | 785 nM |
| O=c1n(Cc2nc(NCC3(O)CCCNCC3)n(-c3ccccc3Cl)n2)nc(-c2ccc(Cl)cc2)n1C[C@H](O)C(F)(F)F (mixture of isomers) [Example 20] | 0.42 nM | 28.6 | 12 nM |
| O=C1CCC(Nc2nc(Cn3nc(-c4ccc(Cl)cc4)n(C[C@H](O)C(F)(F)F)c3=O)nn2-c2ccccc2Cl)CN1 (single isomer, unassigned) [Example 61] | 1.35 nM | 7.4 | 10.1 nM |
| O=C1NCCC1Nc1nc(Cn2nc(-c3ccc(Cl)cc3)n(C[C@H](O)C(F)(F)F)c2=O)nn1-c1ccccc1Cl (mixture of isomers) [Example 16, 5-(4-Chlorophenyl)-2-{[1-(2-chlorophenyl)-5-{[2-oxopyrrolidin-3-yl]amino}-1H-1,2,4-triazol-3-yl]methyl}-4-[(2S)-3,3,3-trifluoro-2-hydroxypropyl]-2,4-dihydro-3H-1,2,4-triazol-3-one] | 0.33 nM | 2.5 | 0.82 nM |
| O=C1CC[C@H](CNc2nc(Cn3nc(-c4ccc(Cl)cc4)n(C[C@H](O)C(F)(F)F)c3=O)nn2CCC(F)(F)F)N1 [Example 101, 5-(4-Chlorophenyl)-2-{[5-({[(2R)-5-oxopyrrolidin-2-yl]methyl}amino)-1-(3,3,3-trifluoropropyl)-1H-1,2,4-triazol-3-yl]methyl}-4-[(2S)-3,3,3-trifluoro-2-hydroxypropyl]-2,4-dihydro-3H-1,2,4-triazol-3-one] | 29.5 nM | 17.3 | 510 nM |
| O=C1CN(c2nc(Cn3nc(-c4ccc(Cl)cc4)n(C[C@H](O)C(F)(F)F)c3=O)nn2-c2ccccc2Cl)CCN1 [Example 48, 4-[1-(2-Chlorophenyl)-3-({3-(4-chlorophenyl)-5-oxo-4-[(2S)-3,3,3-trifluoro-2-hydroxypropyl]-4,5-dihydro-1H-1,2,4-triazol-1-yl}methyl)-1H-1,2,4-triazol-5-yl]piperazin-2-one] | 0.64 nM | 16.3 | 10.4 nM |
| NS(=O)(=O)CCNc1nc(Cn2nc(-c3ccc(Cl)cc3)n(C[C@H](O)C(F)(F)F)c2=O)nn1-c1ccccc1Cl [Example 44, 2-{[1-(2-Chlorophenyl)-3-({3-(4-chlorophenyl)-5-oxo-4-[(2S)-3,3,3-trifluoro-2-hydroxypropyl]-4,5-dihydro-1H-1,2,4-triazol-1-yl}methyl)-1H-1,2,4-triazol-5-yl]amino}ethanesulfonamide] | 0.34 nM | 3.5 | 1.16 nM |
| COCCNc1nc(Cn2nc(-c3ccc(Cl)cc3)n(C[C@H](O)C(F)(F)F)c2=O)nn1-c1ccccc1Cl [Example 79, 5-(4-Chlorophenyl)-2-({1-(2-chlorophenyl)-5-[(2-methoxyethyl)amino]-1H-1,2,4-triazol-3-yl}methyl)-4-[(2S)-3,3,3-trifluoro-2-hydroxypropyl]-2,4-dihydro-3H-1,2,4-triazol-3-one] | 0.32 nM | 6.8 | 2.19 nM |
| CC(C)(CF)CNc1nc(Cn2nc(-c3ccc(Cl)cc3)n(C[C@H](O)C(F)(F)F)c2=O)nn1-c1ccccc1Cl [Example 3, 5-(4-Chlorophenyl)-2-({1-(2-chlorophenyl)-5-[(3-fluoro-2,2-dimethylpropyl)amino]-1H-1,2,4-triazol-3-yl}methyl)-4-[(2S)-3,3,3-trifluoro-2-hydroxypropyl]-2,4-dihydro-3H-1,2,4-triazol-3-one] | 0.62 nM | 3.5 | 2.15 nM |
| COCCN(C)c1nc(Cn2nc(-c3ccc(Cl)cc3)n(C[C@H](O)C(F)(F)F)c2=O)nn1-c1ccccc1Cl [Example 85, 5-(4-Chlorophenyl)-2-({1-(2-chlorophenyl)-5-[(2-methoxyethyl)(methyl)amino]-1H-1,2,4-triazol-3-yl}methyl)-4-[(2S)-3,3,3-trifluoro-2-hydroxypropyl]-2,4-dihydro-3H-1,2,4-triazol-3-one] | 0.58 nM | 16.9 | 9.76 nM |
| O=c1n(Cc2nc(N3CCS(=O)(=O)CC3)n(-c3ncccc3Cl)n2)nc(-c2ccc(Cl)cc2)n1C[C@H](O)C(F)(F)F [Example 96, 5-(4-Chlorophenyl)-2-{[1-(3-chloropyridin-2-yl)-5-(1,1-dioxidothiomorpholin-4-yl)-1H-1,2,4-triazol-3-yl]methyl}-4-[(2S)-3,3,3-trifluoro-2-hydroxypropyl]-2,4-dihydro-3H-1,2,4-triazol-3-one] | 1 nM | 407.5 | 408 nM |
| O=c1n(Cc2nc(N3CCOC(C(F)(F)F)C3)n(CCC(F)(F)F)n2)nc(-c2ccc(Cl)cc2)n1C[C@H](O)C(F)(F)F (single isomer, unassigned) [Example 104] | 30.5 nM | 12.0 | 365 nM |
